Patent US9808003B2, “Herbicidally active 2-(substituted-phenyl)-cyclopentane-1,3-dione compounds and derivatives thereof” (Syngenta Limited, priority 2013, dated 2017)

Key:
Type in all cases: in vivo
Poa annua (POAAN) = assay: Test 1B glasshouse assay, post-emergence herbicidal activity against grassy weeds; conditions: 14 DAA
Procedure: (§1) Biological Example 1B tests the herbicidal activity of“technical” compounds (i.e. compounds not previously formulated before the test), as the herbicides under test.
(§2) An “instant formulation”, known as the “IF50”, containing 50 g/liter (i.e. 5% w/v) of the “technical” (i.e. unformulated) active ingredient (i.e. the herbicide under test), is prepared by dissolving the active ingredient in a mixture of organic solvents and emulsifier, details of which are provided in the Table below.
(§3) This IF50 is mixed with a small, variable amount of acetone to aid dissolution, before addition of a 0.5% v/v aqueous solution of the adjuvant Adigor™ (an adjuvant containing rapeseed oil methyl ester, ethoxylated alcohols, and a mixture of heavy aromatic hydrocarbons, e.g. available from Syngenta), as the aqueous diluent, to form an aqueous spray solution which contains a predetermined concentration of the active ingredient (which varies depending on the application rate of the active ingredient to the plants) and 0.5% v/v of the adjuvant Adigor™. This aqueous spray solution is suitable for spraying onto plants.
(§4) Seeds of a variety of test species are sown in standard soil in pots. After cultivation for 14 days under controlled conditions in a glasshouse (at 22/16° C., day/night; 16 hours light; 65% humidity), the plants are sprayed post-emergence with the above-mentioned aqueous spray solution containing inter alia the “technical” active ingredient (i.e. the herbicide under test) and the adjuvant Adigor™.
(§5) The test plants are then grown on under controlled conditions in the glasshouse (at 22/16° C., day/night; 16 hours light; 65% humidity) and are watered twice daily. 14 days after application of the test herbicide, the test is evaluated visually for percentage phytotoxicity to the plant (where 100%=total damage to plant; 0%=no damage to plant).
(§6) More specifically, post-emergence herbicidal activity (phytotoxicity) data, on certain tested grassy monocotyledonous weeds (and/or plants of the type Gramineae) and cereal crops in the glasshouse, are measured 14 days after application of the herbicide (14 DAA), typically for inter alia one or more of the following application rates: • (a) a post-emergence application rate of 60 g/ha of the test herbicide with or without 50 g/ha of cloquintocet-mexyl safener, and • (b) a post-emergence application rate of 90 g/ha of the test herbicide with 50 g/ha of cloquintocet-mexyl safener, and • (c) a post-emergence application rate of 120 g/ha of the test herbicide with 50 g/ha of cloquintocet-mexyl safener.
(§7) The cloquintocet-mexyl, when used, is present in the formulation containing the herbicide under test dissolved in acetone plus IF50.
(§8) The range of herbicide application rates tested sometimes includes application rates other than those shown above, and the rates can vary depending on the herbicide under test.
(§9) Herbicidal activity (phytotoxicity) is evaluated visually, and an assessed percentage phytotoxicity score is given for each herbicidal application on each plant species (with 100%=total damage to plant; 0%=no damage to plant; the assessment is recorded in increments of 1%). Two replicates are made for each experiment, and the mean herbicidal activity (phytotoxicity) data is reported.
(§10) For compounds A34, A98, A99, A87, A100, A101, A89, A120, A120A, A120B, A23, A127, A128, A89, A112 and A113 the tested weeds were as follows: Avena fatua (AVEFA), Lolium multiflorum (LOLMU), Setaria viridis (SETVI), Poa annua (POAAN), Alopecurus myosuroides (ALOMY). All five of these are grassy monocotyledonous weeds. Except for SETVI, these are all “cool-season” grassy monocotyledonous weeds.

Avena fatua (AVEFA) = assay: as above; conditions: 14 DAA
Procedure: as §1, §2, §3, §4, §5, §6, §7, §8, §9, §10

[1] = system: Alopecurus myosuroides (ALOMY); assay: as above; conditions: 14 DAA
Procedure: as §1, §2, §3, §4, §5, §6, §7, §8, §9, §10

Setaria viridis (SETVI) = assay: as above; conditions: 14 DAA
Procedure: as §1, §2, §3, §4, §5, §6, §7, §8, §9, §10

[2] = system: Lolium multiflorum (LOLMU); assay: as above; conditions: 14 DAA
Procedure: as §1, §2, §3, §4, §5, §6, §7, §8, §9, §10

Winter Barley “Suzuka” = assay: Test 1B glasshouse assay, post-emergence herbicidal activity against cereal crops
Procedure: as §1, §2, §3, §4, §5, §6, §7, §8, §9

Winter Wheat “Hereward” = assay: as above
Procedure: as §1, §2, §3, §4, §5, §6, §7, §8, §9

[3] = system: Spring Barley “Harrington”; assay: as above
Procedure: as §1, §2, §3, §4, §5, §6, §7, §8, §9

Spring Wheat “Freya” = assay: as above
[4] = 30 g/ha herbicide, 50 g/ha cloquintocet-mexyl
[5] = 45 g/ha herbicide, 50 g/ha cloquintocet-mexyl
[6] = 60 g/ha herbicide, 0 g/ha cloquintocet-mexyl
[7] = 60 g/ha herbicide, 50 g/ha cloquintocet-mexyl
[8] = herbicide 30 g/ha, cloquintocet-mexyl 50 g/ha
[9] = herbicide 45 g/ha, cloquintocet-mexyl 50 g/ha
[10] = herbicide 60 g/ha, cloquintocet-mexyl 0 g/ha
[11] = herbicide 60 g/ha, cloquintocet-mexyl 50 g/ha

SMILES | Post-emergence herbicidal activity, percentage phytotoxicity, POAAN (Poa annua (POAAN); [4]) | Post-emergence herbicidal activity, percentage phytotoxicity, POAAN (Poa annua (POAAN); [5]) | Post-emergence herbicidal activity, percentage phytotoxicity, POAAN (Poa annua (POAAN); [6]) | Post-emergence herbicidal activity, percentage phytotoxicity, POAAN (Poa annua (POAAN); [7]) | Post-emergence herbicidal activity, percentage phytotoxicity, AVEFA (Avena fatua (AVEFA); [4]) | Post-emergence herbicidal activity, percentage phytotoxicity, AVEFA (Avena fatua (AVEFA); [5]) | Post-emergence herbicidal activity, percentage phytotoxicity, AVEFA (Avena fatua (AVEFA); [6]) | Post-emergence herbicidal activity, percentage phytotoxicity, AVEFA (Avena fatua (AVEFA); [7]) | Post-emergence herbicidal activity, percentage phytotoxicity, ALOMY [1, 4] | Post-emergence herbicidal activity, percentage phytotoxicity, ALOMY [1, 5] | Post-emergence herbicidal activity, percentage phytotoxicity, ALOMY [1, 6] | Post-emergence herbicidal activity, percentage phytotoxicity, ALOMY [1, 7] | Post-emergence herbicidal activity, percentage phytotoxicity, SETVI (Setaria viridis (SETVI); [4]) | Post-emergence herbicidal activity, percentage phytotoxicity, SETVI (Setaria viridis (SETVI); [5]) | Post-emergence herbicidal activity, percentage phytotoxicity, SETVI (Setaria viridis (SETVI); [6]) | Post-emergence herbicidal activity, percentage phytotoxicity, SETVI (Setaria viridis (SETVI); [7]) | Post-emergence herbicidal activity, percentage phytotoxicity, LOLMU [2, 4] | Post-emergence herbicidal activity, percentage phytotoxicity, LOLMU [2, 5] | Post-emergence herbicidal activity, percentage phytotoxicity, LOLMU [2, 6] | Post-emergence herbicidal activity, percentage phytotoxicity, LOLMU [2, 7] | also measured
Cc1cc(C)c(C2C(=O)C[C@@H](CCNC(=O)c3cccc(F)n3)C2=O)c(C)c1 (stereo partly drawn) [Compound A112] | 0% | 0% | 40% | 13% | 93% | 94% | 98% | 97% | 97% | 97% | 99% | 98% | 100% | 100% | 100% | 100% | 98% | 100% | 100% | 100% | Percentage Phytotoxicity Winter Barley “Suzuka” (Winter Barley “Suzuka”; [8]): 18%; Percentage Phytotoxicity Winter Barley “Suzuka” (Winter Barley “Suzuka”; [9]): 30%; Percentage Phytotoxicity Winter Barley “Suzuka” (Winter Barley “Suzuka”; [10]): 88%; Percentage Phytotoxicity Winter Barley “Suzuka” (Winter Barley “Suzuka”; [11]): 53%; Percentage Phytotoxicity Winter Wheat “Hereward” (Winter Wheat “Hereward”; [8]): 33%; Percentage Phytotoxicity Winter Wheat “Hereward” (Winter Wheat “Hereward”; [9]): 40%; Percentage Phytotoxicity Winter Wheat “Hereward” (Winter Wheat “Hereward”; [10]): 85%; Percentage Phytotoxicity Winter Wheat “Hereward” (Winter Wheat “Hereward”; [11]): 50%; Percentage Phytotoxicity Spring Barley “Harrington” [3, 8]: 30%; Percentage Phytotoxicity Spring Barley “Harrington” [3, 9]: 45%; Percentage Phytotoxicity Spring Barley “Harrington” [3, 10]: 93%; Percentage Phytotoxicity Spring Barley “Harrington” [3, 11]: 73%; Percentage Phytotoxicity Spring Wheat “Freya” (Spring Wheat “Freya”; [8]): 25%; Percentage Phytotoxicity Spring Wheat “Freya” (Spring Wheat “Freya”; [9]): 33%; Percentage Phytotoxicity Spring Wheat “Freya” (Spring Wheat “Freya”; [10]): 75%; Percentage Phytotoxicity Spring Wheat “Freya” (Spring Wheat “Freya”; [11]): 50%
Cc1cc(C)c(C2C(=O)C[C@H](CCNC(=O)c3cccc(F)n3)C2=O)c(C)c1 (stereo partly drawn) [Compound A113] | 0% | 0% | 8% | 0% | 1% | 3% | 5% | 3% | 0% | 18% | 20% | 25% | 5% | 40% | 53% | 55% | 3% | 20% | 45% | 23% | Percentage Phytotoxicity Winter Barley “Suzuka” (Winter Barley “Suzuka”; [8]): 0%; Percentage Phytotoxicity Winter Barley “Suzuka” (Winter Barley “Suzuka”; [9]): 0%; Percentage Phytotoxicity Winter Barley “Suzuka” (Winter Barley “Suzuka”; [10]): 28%; Percentage Phytotoxicity Winter Barley “Suzuka” (Winter Barley “Suzuka”; [11]): 0%; Percentage Phytotoxicity Winter Wheat “Hereward” (Winter Wheat “Hereward”; [8]): 0%; Percentage Phytotoxicity Winter Wheat “Hereward” (Winter Wheat “Hereward”; [9]): 0%; Percentage Phytotoxicity Winter Wheat “Hereward” (Winter Wheat “Hereward”; [10]): 3%; Percentage Phytotoxicity Winter Wheat “Hereward” (Winter Wheat “Hereward”; [11]): 0%; Percentage Phytotoxicity Spring Barley “Harrington” [3, 8]: 0%; Percentage Phytotoxicity Spring Barley “Harrington” [3, 9]: 0%; Percentage Phytotoxicity Spring Barley “Harrington” [3, 10]: 33%; Percentage Phytotoxicity Spring Barley “Harrington” [3, 11]: 8%; Percentage Phytotoxicity Spring Wheat “Freya” (Spring Wheat “Freya”; [8]): 3%; Percentage Phytotoxicity Spring Wheat “Freya” (Spring Wheat “Freya”; [9]): 0%; Percentage Phytotoxicity Spring Wheat “Freya” (Spring Wheat “Freya”; [10]): 7%; Percentage Phytotoxicity Spring Wheat “Freya” (Spring Wheat “Freya”; [11]): 0%
Cc1cc(C)c(C2C(=O)C[C@@H](CCNC(=O)c3cc(Cl)ccn3)C2=O)c(C)c1 (stereo partly drawn) [Compound A127] | 0% | 0% | 0% | 0% | 55% | 80% | 85% | 90% | 48% | 63% | 78% | 68% | 97% | 99% | 100% | 100% | 65% | 83% | 97% | 83% | Percentage Phytotoxicity Winter Barley “Suzuka” (Winter Barley “Suzuka”; [8]): 0%; Percentage Phytotoxicity Winter Barley “Suzuka” (Winter Barley “Suzuka”; [9]): 0%; Percentage Phytotoxicity Winter Barley “Suzuka” (Winter Barley “Suzuka”; [10]): 85%; Percentage Phytotoxicity Winter Barley “Suzuka” (Winter Barley “Suzuka”; [11]): 5%; Percentage Phytotoxicity Winter Wheat “Hereward” (Winter Wheat “Hereward”; [8]): 0%; Percentage Phytotoxicity Winter Wheat “Hereward” (Winter Wheat “Hereward”; [9]): 0%; Percentage Phytotoxicity Winter Wheat “Hereward” (Winter Wheat “Hereward”; [10]): 65%; Percentage Phytotoxicity Winter Wheat “Hereward” (Winter Wheat “Hereward”; [11]): 5%; Percentage Phytotoxicity Spring Barley “Harrington” [3, 8]: 0%; Percentage Phytotoxicity Spring Barley “Harrington” [3, 9]: 0%; Percentage Phytotoxicity Spring Barley “Harrington” [3, 10]: 83%; Percentage Phytotoxicity Spring Barley “Harrington” [3, 11]: 8%; Percentage Phytotoxicity Spring Wheat “Freya” (Spring Wheat “Freya”; [8]): 0%; Percentage Phytotoxicity Spring Wheat “Freya” (Spring Wheat “Freya”; [9]): 3%; Percentage Phytotoxicity Spring Wheat “Freya” (Spring Wheat “Freya”; [10]): 70%; Percentage Phytotoxicity Spring Wheat “Freya” (Spring Wheat “Freya”; [11]): 5%
